Laboratory results: patent US20250144164A1, “COMPOSITIONS, METHODS, AND MEDICAL COMPOSITIONS FOR TREATMENT OF AND MAINTAINING THE HEALTH OF THE LIVER” (priority 2023, published 2025)

Test system: CCl4-induced hepatotoxicity model
Assay: Carbon tetrachloride (CCl4)-induced hepatotoxicity model, serum ALT and survival
Type: in vivo, ICR/CD-1 mice
Conditions: CCL4 25 μl/kg; dose 50 mg/kg

SMILES: C=CCc1cc(OC)c2c(c1)OCO2 [Myristicin]
- % Change (inhibition in serum ALT): 99.7%
